Starred links: 1 amine or outer side, 2 acyl side, 3 side chain; linkers in the order of their positions; H or OH if unused. Positions of bridges follow the written chain, without caps; N, C: chain ends. Non-standard residues stand in square brackets, D forms with d. Residues, ends and D or L forms follow the SMILES beside them. Hexanoyl(3S-OH,4R-NH2,5-Me) = CC(C)[C@@H](N[*:1])[C@@H](O)CC(=O)[*:2]; NMe2Nal = CN[C@@H](Cc1ccc2ccccc2c1)C(=O)O; dNMeL = CN[C@H](CC(C)C)C(=O)O; Hiv = CC(C)[C@H](O)C(=O)O; Lac = C[C@H](O)C(=O)O
Tests used:
HELA = assay: SRB colorimetric cell growth inhibition assay, HELA
Experimental: (§1) This form of assay employs 96 well cell culture microplates of […] diameter (Faircloth, 1988; Mosmann, 1983). Most of the cell lines are obtained from American Type Culture Collection (ATCC) derived from different human cancer types.
(§2) Cells are maintained in RPMI 1640 10% FBS, supplemented with 0.1 g/l penicillin and 0.1 g/l streptomycin sulfate and then incubated at 37° C., 5% CO2 and 98% humidity. For the experiments, cells were harvested from subconfluent cultures using trypsin and resuspended in fresh medium before plating.
(§3) Cells are seeded in 96 well microtiter plates, at 5×10^3 cells per well in aliquots of 195 μl medium, and they are allowed to attach to the plate surface by growing in drug free medium for 18 hours. Afterward, samples are added in aliquots of 5 μl in a ranging from 10 to 10-8 μg/ml, dissolved in DMSO/EtOH/PBS (0.5:0.5:99). After 48 hours exposure, the antitumor effect are measured by the SRB methodology: cells are fixed by adding 50 μl of cold 50% (wt/vol) trichloroacetic acid (TCA) and incubated for 60 minutes at 4° C.
(§4) Plates are washed with deionised water and dried. One hundred μl of SRB solution (0.4% wt/vol in 1% acetic acid) is added to each microtiter well and incubated for 10 minutes at room temperature. Unbound SRB is removed by washing with 1% acetic acid. Plates are air dried and bound stain is solubilized with Tris buffer. Optical densities are read on a automated spectrophotometric plate reader at a single wavelength of 490 nm.
(§5) The values for mean+/−SD of data from triplicate wells are calculated.
(§6) Some parameters for cellular responses can be calculated: GI=growth inhibition, TGI=total growth inhibition (cytostatic effect) and LC=cell killing (cytotoxic effect).

HT29 = assay: SRB colorimetric cell growth inhibition assay, HT29
Experimental: as §1, §2, §3, §4, §5, §6

IGROV = assay: SRB colorimetric cell growth inhibition assay, IGROV
Experimental: as §1, §2, §3, §4, §5, §6

HELA-APL = assay: SRB colorimetric cell growth inhibition assay, HELA-APL
Experimental: as §1, §2, §3, §4, §5, §6

K562 = assay: SRB colorimetric cell growth inhibition assay, K562
Experimental: as §1, §2, §3, §4, §5, §6

SK-BR3 = assay: SRB colorimetric cell growth inhibition assay, SK-BR3
Experimental: as §1, §2, §3, §4, §5, §6

PANC1 = assay: SRB colorimetric cell growth inhibition assay, PANC1
Experimental: as §1, §2, §3, §4, §5, §6

LOVO-DOX = assay: SRB colorimetric cell growth inhibition assay, LOVO-DOX
Experimental: as §1, §2, §3, §4, §5, §6

IGROV-ET = assay: SRB colorimetric cell growth inhibition assay, IGROV-ET
Experimental: as §1, §2, §3, §4, §5, §6

SK-MEL-28 = assay: SRB colorimetric cell growth inhibition assay, SK-MEL-28
Experimental: as §1, §2, §3, §4, §5, §6

LOVO = assay: SRB colorimetric cell growth inhibition assay, LOVO
Experimental: as §1, §2, §3, §4, §5, §6

A549 = assay: SRB colorimetric cell growth inhibition assay, A549
Experimental: as §1, §2, §3, §4, §5, §6

LN-caP = assay: SRB colorimetric cell growth inhibition assay, LN-caP
Experimental: as §1, §2, §3, §4, §5, §6

DU145 = assay: SRB colorimetric cell growth inhibition assay, DU145
Experimental: as §1, §2, §3, §4, §5, §6

[1] = Homo sapiens, 48 h, read-out: LC50

Work on `CC(C)C[C@@H]1NC(=O)[C@H](C(C)C)OC(=O)C[C@H](O)[C@@H](C(C)C)NC(=O)[C@@H](NC(=O)[C@@H](CC(C)C)N(C)C(=O)[C@@H]2CCCN2C(=O)[C@H](C)O)[C@@H](C)OC(=O)[C@H](Cc2ccc3ccccc3c2)N(C)C(=O)[C@@H]2CCCN2C1=O` [Compound 93, [2-Naphthylala^5]-Tamandarin B] (H-[Lac]P[dNMeL]T[Hexanoyl(3S-OH,4R-NH2,5-Me)][Hiv]LP[NMe2Nal]; ester 4-C) yielded a TGI (HELA; HELA cells, total growth inhibition, SRB, 48 hours exposure) of 9.79E−09 Molar, a GI50 (HELA; Homo sapiens, HeLa, 48 h) of 0.00281 µM and a CC50 (HELA; Homo sapiens, HeLa, 48 h, read-out: LC50) of 0.0549 µM. For the same compound, the TGI (HT29; HT29 cells, total growth inhibition, SRB, 48 hours exposure) was 6.98E−08 Molar, the GI50 (HT29; Homo sapiens, HT-29, 48 h) was 0.0046 µM and the CC50 (HT29; Homo sapiens, HT-29, 48 h, read-out: LC50) was 5.58 µM. The GI50 (IGROV; Homo sapiens, IGROV, 48 h) was 0.00209 µM, the CC50 (IGROV; Homo sapiens, IGROV, 48 h, read-out: LC50) was 0.666 µM and the TGI (IGROV; IGROV cells, total growth inhibition, SRB, 48 hours exposure) was 1.28E−08 Molar. The TGI (HELA-APL; HELA-APL cells, total growth inhibition, SRB, 48 hours exposure) was 1.68E−07 Molar, the GI50 (HELA-APL; Homo sapiens, 48 h) was 0.0364 µM and the CC50 (HELA-APL; [1]) was 2.28 µM. The GI50 (K562; Homo sapiens, K562, 48 h) was 0.02 µM, the CC50 (K562; Homo sapiens, K562, 48 h, read-out: LC50) was 0.198 µM and the TGI (K562; K562 cells, total growth inhibition, SRB, 48 hours exposure) was 4.73E−08 Molar. The GI50 (SK-BR3; Homo sapiens, SK-BR-3, 48 h) was 0.00183 µM, the CC50 (SK-BR3; Homo sapiens, SK-BR-3, 48 h, read-out: LC50) was 4.65 µM and the TGI (SK-BR3; SK-BR3 cells, total growth inhibition, SRB, 48 hours exposure) was 1.89E−08 Molar. The GI50 (PANC1; Homo sapiens, PANC-1, 48 h) was 0.00624 µM, the CC50 (PANC1; Homo sapiens, PANC-1, 48 h, read-out: LC50) was 9.41 µM and the TGI (PANC1; PANC1 cells, total growth inhibition, SRB, 48 hours exposure) was 9.00E−08 Molar. For the same compound, the GI50 (LOVO-DOX; Homo sapiens, 48 h) was 0.429 µM, the CC50 (LOVO-DOX; [1]) was 9.41 µM and the TGI (LOVO-DOX; LOVO-DOX cells, total growth inhibition, SRB, 48 hours exposure) was 2.33E−06 Molar. For the same compound, the GI50 (IGROV-ET; Homo sapiens, 48 h) was 0.159 µM, the CC50 (IGROV-ET; [1]) was 2.81 µM and the TGI (IGROV-ET; IGROV-ET cells, total growth inhibition, SRB, 48 hours exposure) was 6.54E−07 Molar. The GI50 (SK-MEL-28; Homo sapiens, SK-MEL-28, 48 h) was 0.00414 µM, the CC50 (SK-MEL-28; Homo sapiens, SK-MEL-28, 48 h, read-out: LC50) was 0.0879 µM and the TGI (SK-MEL-28; SK-MEL-28 cells, total growth inhibition, SRB, 48 hours exposure) was 1.52E−08 Molar. For the same compound, the GI50 (LOVO; Homo sapiens, LoVo, 48 h) was 0.00684 µM, the CC50 (LOVO; Homo sapiens, LoVo, 48 h, read-out: LC50) was 2.49 µM and the TGI (LOVO; LOVO cells, total growth inhibition, SRB, 48 hours exposure) was 4.27E−08 Molar. It also gave a TGI (A549; A549 cells, total growth inhibition, SRB, 48 hours exposure) of 4.86E−08 Molar, a GI50 (A549; Homo sapiens, A549, 48 h) of 0.00696 µM and a CC50 (A549; Homo sapiens, A549, 48 h, read-out: LC50) of 0.595 µM. The GI50 (LN-caP; Homo sapiens, LNCaP, 48 h) was 0.00198 µM, the CC50 (LN-caP; Homo sapiens, LNCaP, 48 h, read-out: LC50) was 0.0097 µM and the TGI (LN-caP; LN-caP cells, total growth inhibition, SRB, 48 hours exposure) was 4.33E−09 Molar. It also gave a TGI (DU145; DU145 cells, total growth inhibition, SRB, 48 hours exposure) of 4.39E−09 Molar, a GI50 (DU145; Homo sapiens, DU-145, 48 h) of 0.00217 µM and a CC50 (DU145; Homo sapiens, DU-145, 48 h, read-out: LC50) of 0.00883 µM.

Reference: patent publication US20070149446A1, “Tamandarin analogs and fragments thereof and methods of making and using” (The Trustees of the University of Pennsylvania Center for …, priority 2003, published 2007)
